Format in all cases: functional
One assay deals with HL-60. As to the kind of experiment: Evaluated for cell growth inhibition and induction of cellular differentiation of human myeloid leukemia cell line (HL-60). Particulars: read-out: ID50 (the source's name).
For the next assay, the system named is L1210. As to the kind of experiment: Evaluated for cell growth inhibition and induction of cellular differentiation of Murine leukemia cell line (L-1210). As to conditions: Mus musculus, read-out: ID50 (the source's name).
For the next assay, the system named is K562. As to the kind of experiment: Evaluated for cell growth inhibition and induction of cellular differentiation of human myeloid leukemia cell line (K562). As to conditions: read-out: ID50 (the source's name).
Assay [1] is described as follows: Evaluated for cell growth inhibition and induction of cellular differentiation of human B-lymphoblast cell line (WI-L2). Particulars: WIL2, read-out: ID50 (the source's name).

Regarding `NC(=O)c1nn([C@@H]2O[C@H](CO)[C@@H](O)[C@H]2O)nc1C(N)=O`, the IC50 in the assay on HL-60 was 32 µM; in the assay on L1210, > 100 µM; in the assay on K562, 26 µM; in assay [1] it was 41 µM.
The matching figures for `N=C(N)c1nn(C2OC(CO)[C@H](O)C2O)c(N)c1C(=N)N` (stereo not given in full): 130 µM, 200 µM, > 200 µM and 179 µM.
The matching figures for `N=C(NO)c1nn(C2O[C@H](CO)[C@@H](O)[C@H]2O)nc1/C(N)=N/O` (stereo not given in full): > 200 µM, > 200 µM, > 200 µM and > 200 µM.
As to `NC(=O)c1cn(C2O[C@H](CO)[C@@H](O)[C@H]2O)nc1C(N)=O` (stereo not given in full), the IC50 with HL-60 is 58 µM; in the assay on L1210, > 100 µM; in the assay on K562 it was 160 µM; in assay [1], 100 µM.
In the same order, the values of `N=C(NO)c1nn(C2O[C@H](CO)[C@@H](O)[C@H]2O)c(N)c1/C(N)=N/O` (stereo not given in full) are > 200 µM, > 200 µM, > 200 µM and > 200 µM.
In the same order, the values of `N=C(S)c1nn(C2O[C@H](CO)[C@@H](O)[C@H]2O)nc1C(N)=S` (stereo not given in full) are > 200 µM, > 200 µM, > 200 µM and > 200 µM.
The matching figures for `NC(=O)c1nn(C2O[C@H](CO)[C@@H](O)[C@H]2O)c(N)c1C(N)=O` (stereo not given in full): 39 µM, 44 µM, 51 µM and 46 µM.
As for `N=C(S)c1nn(C2O[C@H](CO)[C@@H](O)[C@H]2O)c(N)c1C(N)=S` (stereo not given in full), the IC50 was 200 µM in the assay with HL-60, > 200 µM in the assay on L1210, > 200 µM in the assay with K562 and 154 µM in assay [1].
Turning to `NC(=O)c1cn(C2O[C@H](CO)[C@@H](O)[C@H]2O)cc1C(N)=O` (stereo not given in full), the IC50 with HL-60 came to 36 µM; in the assay with L1210, 48 µM; in the assay with K562, 32 µM; in assay [1], 33 µM.
Turning to `NC(=O)c1ncn([C@@H]2O[C@H](CO)[C@@H](O)[C@H]2O)n1` [RIBAVIRIN], the IC50 came to 67 µM in the assay with HL-60, 36 µM in the assay with L1210, 50 µM in the assay with K562 and 42 µM in assay [1].

For the origin of these results see ChEMBL document CHEMBL1124952, “Growth inhibition and induction of cellular differentiation of human myeloid leukemia cells in culture by carbamoyl congeners of ribavirin” (1990).
